Tested on: Acidovorax delafieldii (ATCC #17505)
Experiment: Bactericidal properties of silver nanofluids, colony count on NB agar plates
Type: cell-based
Description: The addition of nanostructures to fluids can prevent bacterial growth. The bactericidal properties of spherical silver colloid and silver nanorods was measured and compared with the bactericidal properties of silver nitrate. Lyophilized Acidovorax delafieldii (ATCC #17505) bacterium was reconstituted in Difco Nutrient Broth (NB), streaked onto NB agar plates and incubated for 24 hours at 37° C. A single colony was isolated and used to inoculate an NB culture that was grown to mid-log phase where the visibly cloudy solution has an optical density of 0.3 at a wavelength of 600 nm. 10 μL of this preculture (˜2.3×10^4 CFU/mL) was mixed with 5 mL of NB medium that contained 0.2 mg/mL, 0.02 mg/mL, 2 μg/mL, 0.02 μg/mL, and 0.002 μg/mL concentrations of either silver nitrate (AgNO3), silver colloid, or silver nanorods. […] Viable cells were enumerated by the colony count method on NB agar plates.

O=[N+]([O-])[O-].[Ag+] [AgNO3, silver nitrate]
biocide activity compared with other silver samples (28 hours, 37° C.): highest biocide activity | CFU/mL (Acidovorax delafieldii in NB after 28 hours of incubation at 37° C., sample concentration as in Sample cell (text: 0.2 μg/mL Ag)): 1.2 × 10^3 CFU/mL
